Laboratory results taken from PubChem BioAssay AID2060613 (Molecular Pharmacology Branch, DTP, NCI, 2025).

Tested on: 233499-124-R-J3-PDC complex spheroid viability
Experiment: Anticancer human tumor 233499-124-R-J3-PDC patient-derived colon adenocarcinoma cell line growth inhibition [CLK]
Conditions: for IC50: curve of first compound; for viability, T/C: stronger effect = lower value
Procedure, shortened: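 Patient-derived tumor cells grown as complex spheroids with HUVEC endothelial cells and mesenchymal stem cells, treated with drug combinations. Concentrations descend in half-log steps from near clinical Cmax, or from 10 microM if Cmax unknown.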
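Further: spheroids exposed to the drug combinations for seven days.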
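Wherever viability, T/C is given: percent viability relative to DMSO vehicle control wells taken as 100%.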

SMILES: O=c1[nH]cc(F)c(=O)[nH]1 + CNC(=O)c1ccc(Nc2nc(OC3CCCC3)c3c(-c4ccc5nc(C)oc5c4)c[nH]c3n2)c(OC)c1
- IC50 (second compound 0.0316 µM): 316 nM
- IC50 (second compound 0.1 µM): 199 nM
- IC50 (second compound 0.316 µM): 166 nM
- IC50 (second compound 1 µM): 166 nM
- IC50 (second compound 3.16 µM): 150 nM
- IC50 (second compound 10 µM): 195 nM
- viability, T/C (second compound 0.0316 µM, first compound 0.0316 µM): 91.5%
- viability, T/C (second compound 0.0316 µM, first compound 0.1 µM): 95.7%
- viability, T/C (second compound 0.0316 µM, first compound 0.316 µM): 49.8%
- viability, T/C (second compound 0.0316 µM, first compound 1 µM): 28.5%
- viability, T/C (second compound 0.0316 µM, first compound 3.16 µM): 20.1%
- viability, T/C (second compound 0.0316 µM, first compound 10 µM): 19.1%
- viability, T/C (second compound 0.1 µM, first compound 0.0316 µM): 73%
- viability, T/C (second compound 0.1 µM, first compound 0.1 µM): 72.4%
- viability, T/C (second compound 0.1 µM, first compound 0.316 µM): 35.2%
- viability, T/C (second compound 0.1 µM, first compound 1 µM): 21.4%
- viability, T/C (second compound 0.1 µM, first compound 3.16 µM): 15.1%
- viability, T/C (second compound 0.1 µM, first compound 10 µM): 20.4%
- viability, T/C (second compound 0.316 µM, first compound 0.0316 µM): 81%
- viability, T/C (second compound 0.316 µM, first compound 0.1 µM): 60.5%
- viability, T/C (second compound 0.316 µM, first compound 0.316 µM): 36.8%
- viability, T/C (second compound 0.316 µM, first compound 1 µM): 20.7%
- viability, T/C (second compound 0.316 µM, first compound 3.16 µM): 14.9%
- viability, T/C (second compound 0.316 µM, first compound 10 µM): 16.5%
- viability, T/C (second compound 1 µM, first compound 0.0316 µM): 70.6%
- viability, T/C (second compound 1 µM, first compound 0.1 µM): 68.7%
- viability, T/C (second compound 1 µM, first compound 0.316 µM): 26.2%
- viability, T/C (second compound 1 µM, first compound 1 µM): 11.4%
- viability, T/C (second compound 1 µM, first compound 3.16 µM): 7.78%
- viability, T/C (second compound 1 µM, first compound 10 µM): 9.54%
- viability, T/C (second compound 3.16 µM, first compound 0.0316 µM): 70.8%
- viability, T/C (second compound 3.16 µM, first compound 0.1 µM): 63.1%
- viability, T/C (second compound 3.16 µM, first compound 0.316 µM): 26.9%
- viability, T/C (second compound 3.16 µM, first compound 1 µM): 15.5%
- viability, T/C (second compound 3.16 µM, first compound 3.16 µM): 7.07%
- viability, T/C (second compound 3.16 µM, first compound 10 µM): 6.87%
- viability, T/C (second compound 10 µM, first compound 0.0316 µM): 69.6%
- viability, T/C (second compound 10 µM, first compound 0.1 µM): 75.3%
- viability, T/C (second compound 10 µM, first compound 0.316 µM): 33.6%
- viability, T/C (second compound 10 µM, first compound 1 µM): 16%
- viability, T/C (second compound 10 µM, first compound 3.16 µM): 7.38%
- viability, T/C (second compound 10 µM, first compound 10 µM): 8.24%
